Reference: ChEMBL document CHEMBL1201862, “PubChem BioAssay data set” (2004)
Active and inactive are the calls of the source.

Legend:
[1] = loss of viability in HepG2 cells – cell-based, CellTiter-Glo, cherry-picked, cytotoxicity control for Shn3 inhibitor project, dose response (AID 624134); assay type: functional
[2] = non-specific 3'UTR reporter inhibition in Clone20-Shn3RL – cell-based, Renilla luciferase, cherry-picked, counter-screen for Shn3 inhibitor project, dose response (AID 624133); assay type: functional
[3] = reduction of Shn3 3'UTR-driven luciferase in osteoblasts – cell-based, Clone20 osteoblasts, firefly luciferase, cherry-picked, dose response (AID 624132); assay type: functional;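 further: firefly luciferase luminescence from reporter carrying the Shn3 3'UTR in osteoblasts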
[4] = molecular target: DNA dC->dU-editing enzyme APOBEC-3G (Homo sapiens, UniProt Q9HC16); experiment: inhibition of APOBEC3G ssDNA deamination – biochemical, fluorescence, single-stranded DNA substrate, SAR follow-up (AID 602136); assay type: functional; details: read-out: IC50_Mean
[5] = molecular target: DNA dC->dU-editing enzyme APOBEC-3A (Homo sapiens, UniProt P31941); experiment: SAR analysis of small molecule inhibitors of APOBEC3A DNA Deaminase via a fluorescence-based single-stranded DNA deaminase assay.; assay type: functional; details: read-out: IC50_Mean
[6] = molecular target: T1, DNA repair and recombination protein RAD54-like (Homo sapiens, UniProt Q92698); experiment: RAD54 Holliday junction migration blockers – biochemical, fluorescence, cherry-picked samples, dose series, confirmation (AID 651657); assay type: functional
T1 sequence (Q92698 whole entry): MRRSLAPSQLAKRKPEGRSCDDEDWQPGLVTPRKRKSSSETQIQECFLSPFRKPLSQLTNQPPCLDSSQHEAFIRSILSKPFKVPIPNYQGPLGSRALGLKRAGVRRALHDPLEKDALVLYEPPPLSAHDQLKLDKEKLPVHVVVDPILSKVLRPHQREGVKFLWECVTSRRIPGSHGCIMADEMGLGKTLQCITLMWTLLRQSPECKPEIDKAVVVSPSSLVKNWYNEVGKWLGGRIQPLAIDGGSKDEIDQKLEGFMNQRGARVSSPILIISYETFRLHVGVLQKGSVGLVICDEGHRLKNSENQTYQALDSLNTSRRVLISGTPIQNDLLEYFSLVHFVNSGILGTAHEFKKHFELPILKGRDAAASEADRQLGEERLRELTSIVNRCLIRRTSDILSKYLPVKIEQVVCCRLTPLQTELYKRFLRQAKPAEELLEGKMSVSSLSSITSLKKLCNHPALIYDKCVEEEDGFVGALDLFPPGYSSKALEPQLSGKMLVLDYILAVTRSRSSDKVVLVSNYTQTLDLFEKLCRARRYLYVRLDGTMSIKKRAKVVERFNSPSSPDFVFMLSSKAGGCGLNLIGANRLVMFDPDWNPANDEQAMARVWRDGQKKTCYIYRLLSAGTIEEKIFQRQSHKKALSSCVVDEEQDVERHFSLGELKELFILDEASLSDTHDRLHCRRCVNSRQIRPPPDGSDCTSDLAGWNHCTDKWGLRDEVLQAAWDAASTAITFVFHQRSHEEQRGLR

[7] = molecular target: T2, Apoptotic protease-activating factor 1 (Homo sapiens, UniProt O14727); assay type: functional
T2 sequence (O14727 whole entry): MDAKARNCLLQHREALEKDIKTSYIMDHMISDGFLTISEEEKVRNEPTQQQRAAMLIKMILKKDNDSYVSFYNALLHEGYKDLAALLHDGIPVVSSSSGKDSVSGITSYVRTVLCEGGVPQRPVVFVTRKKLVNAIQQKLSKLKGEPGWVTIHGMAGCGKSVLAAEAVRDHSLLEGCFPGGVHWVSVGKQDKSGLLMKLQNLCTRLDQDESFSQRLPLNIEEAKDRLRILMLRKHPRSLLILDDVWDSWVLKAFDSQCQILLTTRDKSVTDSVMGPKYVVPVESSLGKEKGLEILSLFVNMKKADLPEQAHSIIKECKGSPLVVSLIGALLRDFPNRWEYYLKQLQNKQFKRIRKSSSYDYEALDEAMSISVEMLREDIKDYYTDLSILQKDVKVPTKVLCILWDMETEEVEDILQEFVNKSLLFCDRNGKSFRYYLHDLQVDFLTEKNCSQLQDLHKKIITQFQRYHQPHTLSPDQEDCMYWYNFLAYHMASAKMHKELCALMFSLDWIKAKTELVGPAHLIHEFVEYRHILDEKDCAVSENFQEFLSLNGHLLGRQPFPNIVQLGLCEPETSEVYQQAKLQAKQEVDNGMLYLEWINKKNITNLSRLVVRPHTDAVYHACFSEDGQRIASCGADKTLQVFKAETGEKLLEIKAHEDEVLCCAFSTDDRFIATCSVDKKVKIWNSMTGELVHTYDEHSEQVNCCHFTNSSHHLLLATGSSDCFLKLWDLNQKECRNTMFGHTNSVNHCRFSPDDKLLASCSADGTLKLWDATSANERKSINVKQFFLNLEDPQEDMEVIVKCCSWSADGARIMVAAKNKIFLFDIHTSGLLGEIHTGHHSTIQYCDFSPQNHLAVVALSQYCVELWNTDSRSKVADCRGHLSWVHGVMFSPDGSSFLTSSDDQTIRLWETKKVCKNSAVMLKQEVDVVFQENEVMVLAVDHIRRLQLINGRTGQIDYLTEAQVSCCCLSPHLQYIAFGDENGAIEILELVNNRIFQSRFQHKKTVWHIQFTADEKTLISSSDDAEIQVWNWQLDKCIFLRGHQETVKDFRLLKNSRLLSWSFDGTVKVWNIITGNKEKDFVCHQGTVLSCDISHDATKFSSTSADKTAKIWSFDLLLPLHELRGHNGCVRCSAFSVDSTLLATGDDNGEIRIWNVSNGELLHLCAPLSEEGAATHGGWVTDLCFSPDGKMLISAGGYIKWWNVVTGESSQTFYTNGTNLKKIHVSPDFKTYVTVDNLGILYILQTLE

[8] = molecular target: T3, Streptokinase A (Streptococcus pyogenes serotype M1, UniProt P10520); experiment: viability-normalized secreted streptokinase activity reduction – plasminogen activation absorbance, OD405, dose response (AID 1914); assay type: functional, Streptococcus pyogenes M1 GAS;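 further: secreted streptokinase activity via plasminogen activation per viability signal from cell pellet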
T3 sequence (P10520 whole entry): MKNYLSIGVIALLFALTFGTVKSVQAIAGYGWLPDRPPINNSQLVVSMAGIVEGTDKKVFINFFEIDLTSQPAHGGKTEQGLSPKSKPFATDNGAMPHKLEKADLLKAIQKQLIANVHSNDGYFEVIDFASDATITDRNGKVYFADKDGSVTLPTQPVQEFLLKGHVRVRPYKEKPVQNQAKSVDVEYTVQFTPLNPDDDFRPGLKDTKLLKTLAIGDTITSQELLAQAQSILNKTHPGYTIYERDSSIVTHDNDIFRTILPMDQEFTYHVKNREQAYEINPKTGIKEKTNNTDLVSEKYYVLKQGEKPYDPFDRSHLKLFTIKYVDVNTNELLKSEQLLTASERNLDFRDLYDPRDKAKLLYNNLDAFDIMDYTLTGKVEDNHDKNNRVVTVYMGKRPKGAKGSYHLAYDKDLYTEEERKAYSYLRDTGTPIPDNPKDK

[9] = test system: Streptococcus; experiment: GAS UMAA2166 growth inhibition – luminescence, BacTiterGlo, counter-screen for streptokinase expression inhibitor project, dose response (AID 1915); assay type: functional, organism-based;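 further: potency for reduction of bacterial viability or growth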
[10] = test system: Streptococcus sp. 'group A'; experiment: Streptococcus pyogenes SK(-)GAS viability under kanamycin – luminescence, BacTiterGlo, confirmation, counter-screen for streptokinase expression inhibitor project, dose response (AID 1900); assay type: functional, organism-based
[11] = molecular target: Nonstructural protein 1 (Influenza A virus, UniProt Q194T2); assay type: functional, Influenza A virus (A/California/07/2009(H1N1))
[12] = molecular target: T4, Methionyl-tRNA synthetase, putative (Trypanosoma brucei brucei, UniProt Q38C91); assay type: functional, Trypanosoma brucei brucei strain 927/4 GUTat10.1
T4 sequence (Q38C91 whole entry): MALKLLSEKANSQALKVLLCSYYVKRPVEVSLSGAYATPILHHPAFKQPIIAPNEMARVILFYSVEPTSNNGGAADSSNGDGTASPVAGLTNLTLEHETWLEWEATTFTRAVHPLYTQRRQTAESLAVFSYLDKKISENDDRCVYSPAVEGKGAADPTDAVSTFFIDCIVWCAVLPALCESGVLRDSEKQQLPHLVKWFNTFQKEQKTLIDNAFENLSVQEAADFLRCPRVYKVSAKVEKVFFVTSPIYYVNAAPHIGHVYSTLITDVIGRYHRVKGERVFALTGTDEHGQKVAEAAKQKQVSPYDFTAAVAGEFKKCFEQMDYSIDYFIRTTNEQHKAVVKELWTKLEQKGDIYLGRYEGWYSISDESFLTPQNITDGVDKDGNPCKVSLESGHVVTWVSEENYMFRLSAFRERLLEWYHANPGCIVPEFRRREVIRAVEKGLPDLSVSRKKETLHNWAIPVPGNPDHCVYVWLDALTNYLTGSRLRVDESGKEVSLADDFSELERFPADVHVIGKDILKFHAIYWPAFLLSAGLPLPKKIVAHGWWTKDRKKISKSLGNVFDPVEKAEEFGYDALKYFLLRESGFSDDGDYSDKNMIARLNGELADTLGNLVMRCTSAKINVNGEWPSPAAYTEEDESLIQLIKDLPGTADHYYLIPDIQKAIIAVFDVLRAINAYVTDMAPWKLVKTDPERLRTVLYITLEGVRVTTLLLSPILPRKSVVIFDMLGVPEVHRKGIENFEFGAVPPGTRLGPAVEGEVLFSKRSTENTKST

[13] = Counterscreen for inhibitors of Trypanosoma brucei methionyl tRNA synthetase (MetRS): Luminescence-based cell-based high throughput dose response assay to identify compounds that are cytotoxic to Jurkat human T lymphocyte cells.; assay type: functional
[14] = molecular target: T5, Calpain-2 catalytic subunit (Sus scrofa, UniProt P43367); experiment: m-calpain protease blockers, concentration series – biochemical, fluorogenic peptide substrate, dose response (AID 1420); assay type: functional
T5 sequence (P43367 whole entry): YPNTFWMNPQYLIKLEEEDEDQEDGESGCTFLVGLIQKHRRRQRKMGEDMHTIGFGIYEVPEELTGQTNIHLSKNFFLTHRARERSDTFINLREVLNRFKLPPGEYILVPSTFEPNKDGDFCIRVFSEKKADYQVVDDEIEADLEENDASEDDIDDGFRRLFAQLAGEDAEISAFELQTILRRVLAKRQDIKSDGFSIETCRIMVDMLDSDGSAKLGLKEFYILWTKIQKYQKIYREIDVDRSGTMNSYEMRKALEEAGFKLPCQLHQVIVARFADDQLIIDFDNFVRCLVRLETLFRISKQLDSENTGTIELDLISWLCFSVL

[15] = molecular target: T4, Methionyl-tRNA synthetase, putative; assay type: functional, Trypanosoma brucei brucei strain 927/4 GUTat10.1; remark: listed apart in the source

Sequence of Nonstructural protein 1 (Q194T2 whole entry): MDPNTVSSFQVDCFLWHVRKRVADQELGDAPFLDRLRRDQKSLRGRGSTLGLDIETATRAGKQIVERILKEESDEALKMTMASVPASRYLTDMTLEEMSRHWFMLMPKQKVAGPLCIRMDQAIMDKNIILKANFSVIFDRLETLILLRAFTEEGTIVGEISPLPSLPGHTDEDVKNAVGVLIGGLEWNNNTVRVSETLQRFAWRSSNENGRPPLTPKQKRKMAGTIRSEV
Sequence of DNA dC->dU-editing enzyme APOBEC-3G (Q9HC16 whole entry): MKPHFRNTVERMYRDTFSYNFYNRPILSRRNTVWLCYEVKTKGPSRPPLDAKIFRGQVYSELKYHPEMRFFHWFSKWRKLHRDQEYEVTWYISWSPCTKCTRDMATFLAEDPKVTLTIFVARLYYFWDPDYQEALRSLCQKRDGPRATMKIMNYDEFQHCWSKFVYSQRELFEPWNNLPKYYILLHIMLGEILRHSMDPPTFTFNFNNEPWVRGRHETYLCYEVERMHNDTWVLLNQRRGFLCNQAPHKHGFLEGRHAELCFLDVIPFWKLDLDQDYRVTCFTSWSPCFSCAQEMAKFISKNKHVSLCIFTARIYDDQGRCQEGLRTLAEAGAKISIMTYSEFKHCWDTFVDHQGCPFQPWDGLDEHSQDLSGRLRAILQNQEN
Sequence of DNA dC->dU-editing enzyme APOBEC-3A (P31941 whole entry): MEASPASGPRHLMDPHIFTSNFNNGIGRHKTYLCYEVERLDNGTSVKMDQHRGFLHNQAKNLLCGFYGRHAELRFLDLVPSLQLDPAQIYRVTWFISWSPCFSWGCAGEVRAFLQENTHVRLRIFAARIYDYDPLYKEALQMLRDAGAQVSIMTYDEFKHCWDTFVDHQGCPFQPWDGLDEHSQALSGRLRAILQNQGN

With `O=C(c1ccc(Cl)cc1)C1CCCN(Cc2cccc3ncccc23)C1` (stereo unspecified) the AC50 [1] was > 70 µM (inactive), the AC50 [2] was 7.83 µM (active) and the AC50 [3] was 4.52 µM (active).

In the case of `O=C(c1nn2c(C(F)(F)F)cc(-c3ccc(Cl)cc3)nc2c1Cl)N1CCCC1`, the IC50 [4] is reported as > 99 µM (inactive) and the IC50 [5] is reported as > 99 µM (inactive).

With `COc1ccc(Nc2c3c(nc4ccc(C)cc24)CCC3)cc1` the AC50 [6] was 84.4 µM (active).

With `C[C@@]12CCC=C[C@H]1[C@H](c1ccc3ccccc3c1Br)N(Cc1ccccc1)C2=O` the IC50 [7] was 59.3 µM (active), the EC50 [8] was 5.76 µM (active) and the EC50 [9] was 5.78 µM (active). The EC50 [10] was 4.22 µM (active).

For `CCOC(=O)C1CCCN(C2=C(NS(=O)(=O)c3ccc(Br)cc3)C(=O)c3ccccc3C2=O)C1` (stereo unspecified), the IC50 [11] was 15.9 µM (active) and the IC50 [7] was 19.5 µM (active).

In the case of `O=C(NCc1cccs1)c1cccc(Nc2nc3cc(Br)ccc3[nH]2)c1`, the IC50 [12] is reported as 38.7 µM (inactive), the IC50 [13] is reported as 83.1 µM (inactive) and the IC50 [14] is reported as 11.1 µM (not active). The IC50 [15] was 31.3 µM (inactive).
